This note sets out measurements from patent US9399646B2 (Genentech, Inc., priority 2010, dated 2016).

Usually IC50 stands for the concentration that gives 50% inhibition. A low value points to greater potency in that assay.

For test [1], the target named is T1, ER-α in MCF-7 cells (Homo sapiens, UniProt P03372).
T1 sequence (P03372 1-595): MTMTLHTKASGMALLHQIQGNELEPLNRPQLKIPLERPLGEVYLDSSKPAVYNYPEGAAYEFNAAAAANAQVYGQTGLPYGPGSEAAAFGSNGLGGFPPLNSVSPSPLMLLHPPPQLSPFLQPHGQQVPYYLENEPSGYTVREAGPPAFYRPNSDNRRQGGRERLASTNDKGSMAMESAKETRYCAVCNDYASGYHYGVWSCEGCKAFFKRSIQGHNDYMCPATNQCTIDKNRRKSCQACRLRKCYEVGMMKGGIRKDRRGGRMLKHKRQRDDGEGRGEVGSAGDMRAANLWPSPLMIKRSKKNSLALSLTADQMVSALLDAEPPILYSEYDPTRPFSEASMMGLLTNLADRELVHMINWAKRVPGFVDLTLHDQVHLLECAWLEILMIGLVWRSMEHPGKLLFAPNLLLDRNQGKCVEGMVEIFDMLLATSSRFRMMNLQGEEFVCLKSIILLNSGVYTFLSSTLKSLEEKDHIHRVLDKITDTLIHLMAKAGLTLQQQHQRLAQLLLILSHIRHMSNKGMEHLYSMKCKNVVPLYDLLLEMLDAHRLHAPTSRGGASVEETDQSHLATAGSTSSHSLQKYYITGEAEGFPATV
Briefly: Breast cancer cell ER-α in cell western assay (SP1). The arrangement: endogenous in cells; host or cells: MCF-7. The following applies: 4 or 24 hr post compound addition; for Emax: MCF7, SP1 antibody, read-out: ER-α In Cell Western Assay (SP1) Max Response; for DC50: SP1 antibody, read-out: ER-α In Cell Western Assay (SP1) IC50. The format is cell-based. In a few lines:
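Percent remaining ER: SP1 immunofluorescence normalized to DRAQ5 nuclear stain, compared with untreated controls. Treatment lasted 4 or 24 hr across 0.3–0.000003 μM final in MCF-7.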

Test [2] concerns MCF-7 cells. Briefly: Breast cancer cell viability assay (CellTiter-Glo, 5 days). The format is cell-based. To be noted: 5 days' compound exposure; for IC50: Homo sapiens, MCF7, 120 h. In a few lines: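 Eleven-point semilog compound series, final 0.3-0.000003 μM, added to overnight-adhered MCF-7 cells (320/well; RPMI, 10% FBS, 20 mM HEPES) for 5 days. Viability read by CellTiter-Glo luminescence, background from medium without cells subtracted, expressed relative to untreated cells.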
In general terms: Cellular ATP, detected with luciferase, serves as a proxy for viable cell number.

For the compound `CC/C(=C(/c1ccc(/C=C/C(=O)O)cc1)c1ccc2[nH]ncc2c1)c1ccc(-c2cscn2)cc1` [Compound 388, (E)-3-(4-((E)-1-(1H-Indazol-5-yl)-2-(4-(thiazol-4-yl)phenyl)but-1-en-1-yl)phenyl)acrylic acid], in test [1], the Emax was at least 40% and the DC50 is at most 100 nM. Besides, in test [2], the “MCF7 Viability Assay Max Response” value is given as “++ (++ = a single % value ≧ 40%)” and the IC50 was over 100 nM.
For `CC/C(=C(/c1ccc(/C=C/C(=O)O)cc1)c1ccc2c(c1)CNC2=O)c1ccc(F)cc1Cl` [Compound 287, (E)-3-(4-((E)-2-(2-Chloro-4-fluorophenyl)-1-(1-oxoisoindolin-5-yl)but-1-en-1-yl)phenyl)acrylic acid] the same measures were at least 40%, at most 100 nM, “++ (++ = a single % value ≧ 40%)” and at most 100 nM.
For `CC/C(=C(/c1ccc(/C=C/C(=O)NC(C)C)cc1)c1ccc2[nH]ncc2c1)c1ccccc1` [Compound 419, (E)-3-(4-((E)-1-(1H-Indazol-5-yl)-2-phenylbut-1-en-1-yl)phenyl)-N-isopropylacrylamide], in that order: at least 40%, at most 100 nM, “++ (++ = a single % value ≧ 40%)” and at most 100 nM.
For `CC/C(=C(/c1ccc(/C=C/c2nsc(=O)[nH]2)cc1)c1ccc2[nH]ncc2c1)c1ccc(F)cc1Cl` [Compound 439, 3-((E)-4-((E)-2-(2-Chloro-4-fluorophenyl)-1-(1H-indazol-5-yl)but-1-en-1-yl)styryl)-1,2,4-thiadiazol-5(4H)-one], in that order: at least 40%, at most 100 nM, “++ (++ = a single % value ≧ 40%)” and at most 100 nM.
In the case of `CC/C(=C(/c1ccc(/C=C/C(=O)O)cc1)c1ccc2[nH]ncc2c1)c1cccc2ccccc12` [Compound 50, (E)-3-(4-((E)-1-(1H-Indazol-5-yl)-2-(naphthalen-1-yl)but-1-en-1-yl)phenyl)acrylic acid], in test [1], the Emax is at least 40% and the DC50 is at most 100 nM. Also, in test [2], the “MCF7 Viability Assay Max Response” value was “++ (++ = a single % value ≧ 40%)” and the IC50 is at most 100 nM.
With `CC/C(=C(/c1ccc(/C=C/C(=O)O)cc1)c1ccc2[nH]ncc2c1)c1ccc(N(C)C)cc1` [Compound 62, (E)-3-(4-((E)-2-(4-(Dimethylamino)phenyl)-1-(1H-indazol-5-yl)but-1-en-1-yl)phenyl)acrylic acid], in test [1], the Emax is at least 40% and the DC50 was over 100 nM. Also, in test [2], the “MCF7 Viability Assay Max Response” value is recorded as “++ (++ = a single % value ≧ 40%)” and the IC50 was over 100 nM.
Regarding `CC/C(=C(/c1ccc(/C=C/C(=O)O)cc1)c1ccc2[nH]nnc2c1)c1ccccc1` [Compound 3, (E)-3-(4-((E)-1-(1H-Benzo[d][1,2,3]triazol-5-yl)-2-phenylbut-1-en-1-yl)phenyl)acrylic acid], in test [1], the Emax is at least 40%. In addition, in test [2], the “MCF7 Viability Assay Max Response” value was “++ (++ = a single % value ≧ 40%)” and the IC50 is at most 100 nM.
Turning to `CC/C(=C(/c1ccc(/C=C/C(=O)O)cc1)c1ccc2c(c1)OCC(=O)N2)c1ccccc1` [Compound 107, (E)-3-(4-((E)-1-(3-Oxo-3,4-dihydro-2H-benzo[b][1,4]oxazin-7-yl)-2-phenylbut-1-en-1-yl)phenyl)acrylic acid], in test [1], the Emax is at least 40% and the DC50 is over 100 nM. Also, in test [2], the “MCF7 Viability Assay Max Response” value is given as “++ (++ = a single % value ≧ 40%)” and the IC50 is over 100 nM.
Take `CC/C(=C(/c1ccc(/C=C/C(=O)O)cc1)c1ccc2sncc2c1)c1ccccc1` [Compound 156, (E)-3-(4-((E)-1-(Benzo[d]isothiazol-5-yl)-2-phenylbut-1-en-1-yl)phenyl)acrylic acid]: in test [1], the Emax is at least 40% and the DC50 was over 100 nM. Further, in test [2], the “MCF7 Viability Assay Max Response” value is on record as “++ (++ = a single % value ≧ 40%)” and the concentration for half-maximal inhibition (IC50) was over 100 nM.
As for `CC/C(=C(/c1ccc(/C=C/C(=O)O)cc1)c1ncc2[nH]ncc2n1)c1ccccc1` [Compound 149, (E)-3-(4-((E)-2-Phenyl-1-(1H-pyrazolo[4,3-d]pyrimidin-5-yl)but-1-en-1-yl)phenyl)acrylic acid], in test [1], the Emax was at least 40% and the DC50 is over 100 nM. Also, in test [2], the “MCF7 Viability Assay Max Response” value is given as “+ (+ = a single % value < 40%)” and the IC50 is over 100 nM.
With `CC/C(=C(/c1ccc(/C=C/C(=O)O)cc1)c1ccc2[nH]ncc2c1)c1ccc(OCC(=O)O)cc1` [Compound 348, (E)-3-(4-((E)-2-(4-(Carboxymethoxy)phenyl)-1-(1H-indazol-5-yl)but-1-en-1-yl)phenyl)acrylic acid], in test [1], the Emax was under 40% and the DC50 is over 100 nM. In test [2], the “MCF7 Viability Assay Max Response” value is given as “+ (+ = a single % value < 40%)” and the IC50 was over 100 nM.
`CC/C(=C(/c1ccc(/C=C/C(=O)O)cc1)c1ccc2c(=O)[nH]ccc2c1)c1ccccc1` [Compound 97, (E)-3-(4-((E)-1-(1-Oxo-1,2-dihydroisoquinolin-6-yl)-2-phenylbut-1-en-1-yl)phenyl)acrylic acid]: in test [1], the Emax was at least 40% and the DC50 was over 100 nM. Besides, in test [2], the “MCF7 Viability Assay Max Response” value is “++ (++ = a single % value ≧ 40%)” and the IC50 was at most 100 nM.
With `CCOC(=O)n1ncc2cc(/C(=C(\CC)c3ccc(F)cc3Cl)c3ccc(/C=C/C(=O)O)cc3)ccc21` [Compound 406, (E)-3-(4-((E)-2-(2-Chloro-4-fluorophenyl)-1-(1-(ethoxycarbonyl)-1H-indazol-5-yl)but-1-en-1-yl)phenyl)acrylic acid], in test [1], the Emax was at least 40% and the DC50 is at most 100 nM. In test [2], the “MCF7 Viability Assay Max Response” value was “++ (++ = a single % value ≧ 40%)” and the IC50 was at most 100 nM.
Consider `CC/C(=C(/c1ccc(/C=C/C(=O)O)cc1)c1ccc2ccncc2c1)c1ccccc1` [Compound 168, (E)-3-(4-((E)-1-(Isoquinolin-7-yl)-2-phenylbut-1-en-1-yl)phenyl)acrylic acid], for which, in test [1], the Emax is at least 40% and the DC50 is over 100 nM. In addition, in test [2], the “MCF7 Viability Assay Max Response” value is “++ (++ = a single % value ≧ 40%)” and the IC50 was over 100 nM.
`CC/C(=C(/c1ccc(/C=C/C(=O)O)cc1)c1ccc2[nH]ncc2c1F)c1cccc(Oc2ncccn2)c1` [Compound 376, (E)-3-(4-((E)-1-(4-Fluoro-1H-indazol-5-yl)-2-(3-(pyrimidin-2-yloxy)phenyl)but-1-en-1-yl)phenyl)acrylic acid]: in test [1], the Emax was at least 40% and the DC50 is at most 100 nM. Further, in test [2], the “MCF7 Viability Assay Max Response” value was “++ (++ = a single % value ≧ 40%)” and the IC50 is at most 100 nM.
On to `CC/C(=C(/c1ccc(/C=C/C(=O)O)cc1)c1ccc2scnc2c1)c1cccc(Oc2ccccn2)c1` [Compound 300, (E)-3-(4-((E)-1-(Benzo[d]thiazol-5-yl)-2-(3-(pyridin-2-yloxy)phenyl)but-1-en-1-yl)phenyl)acrylic acid], for which, in test [1], the Emax was at least 40% and the DC50 is at most 100 nM. For the same compound, in test [2], the “MCF7 Viability Assay Max Response” value is reported as “++ (++ = a single % value ≧ 40%)” and the IC50 is over 100 nM.
As for `CC/C(=C(/c1ccc(/C=C/C(=O)O)cc1)c1ccc2[nH]ncc2c1)c1cnccc1C` [Compound 218, (E)-3-(4-((E)-1-(1H-Indazol-5-yl)-2-(4-methylpyridin-3-yl)but-1-en-1-yl)phenyl)acrylic acid], in test [1], the Emax was at least 40%. Also, in test [2], the “MCF7 Viability Assay Max Response” value is “++ (++ = a single % value ≧ 40%)” and the IC50 was over 100 nM.
As for `CC/C(=C(/c1ccc(/C=C/C(=O)O)cc1)c1ccc2[nH]ncc2c1)c1cccc(Oc2ccncc2)c1` [Compound 366, (E)-3-(4-((E)-1-(1H-Indazol-5-yl)-2-(3-(pyridin-4-yloxy)phenyl)but-1-en-1-yl)phenyl)acrylic acid], in test [1], the Emax was at least 40% and the DC50 is at most 100 nM. Besides, in test [2], the “MCF7 Viability Assay Max Response” value is “++ (++ = a single % value ≧ 40%)” and the IC50 was at most 100 nM.
Regarding `CC/C(=C(/c1ccc(/C=C/C(=O)O)cc1)c1cc(F)c2[nH]ccc2c1)c1ccc(F)cc1Cl` [Compound 254, (E)-3-(4-((E)-2-(2-Chloro-4-fluorophenyl)-1-(7-fluoro-1H-indol-5-yl)but-1-en-1-yl)phenyl)acrylic acid], in test [1], the Emax was at least 40% and the DC50 was at most 100 nM. In test [2], the “MCF7 Viability Assay Max Response” value is listed as “++ (++ = a single % value ≧ 40%)” and the IC50 was at most 100 nM.
